System: cortical organoids
Assay: Pharmacological perturbation of network activity in cortical organoids, multi-electrode array (MEA) recordings
Format: cell-based, human

SMILES | number of bursts / burst activity | synchronous activity / synchrony indexes | neuronal electrical activity | network bursts (synchrony) | number of network events
NC(CCCP(=O)(O)O)C(=O)O (stereo not drawn) [AP5] | significantly reducing the number of bursts | extinction of synchronous activity |  |  | 
N#Cc1cc2[nH]c(=O)c(=O)[nH]c2cc1[N+](=O)[O-] [CNQX] | significantly reducing the number of bursts | extinction of synchronous activity |  |  | 
NC1=N[C@H](O)[C@H]2[C@H]3O[C@]4(O)O[C@@H]([C@@H](O)[C@@]2(N1)[C@@H]4O)[C@]3(O)CO [TTX, tetrodotoxin] |  |  | blocked |  | 
NCC(CC(=O)O)c1ccc(Cl)cc1 (stereo not drawn) [baclofen] | significantly reducing the number of bursts | extinction of synchronous activity |  | reversibly extinguish the network bursts (synchrony) | completely abolishes synchronized network events
NCc1cc(=O)[nH]o1 [muscimol] | significantly reducing the number of bursts | extinction of synchronous activity |  | reversibly extinguish the network bursts (synchrony) | 
